{"source": "patent US9486430B2", "about": "“Treatment of neurodegenerative disease” (priority 2010, dated 2016)", "key": {"healthy volunteers": {"system": "healthy volunteers", "conditions": "cited from earlier work; for adverse effects in healthy volunteers: up to 5 g (5000 mg per day)"}, "[1]": {"test": "International Normalized Ratio (INR) anticoagulation test in the Parkinson's Disease patient", "assay_type": "in vivo, human", "conditions": "for INR: ref. range 0.8-1.2", "from_the_text": "(§1) As described in detail below, the parameters used to measure these findings were basic observations of speech, gait, overall function and tremor before and after administering t-RES over a period of months using the author's Tremor Rating Scale (TRS) in addition to the UPDRS (Fahn, et al., Recent Developments in Parkinson's Disease, 1989). […] The International Normalized Ratio is a measure of clotting speed in the blood used especially as an indicator of Warfarin levels in the blood in patients with Atrial Fibrillation who need reduced clotting probability, to prevent strokes and pulmonary embolisms—but not so reduced as to increase the chances of hemorrhage, especially from trauma. The INR in a normal person ranges from 0.8 to 1.2 in an A-Fib patient the INR should be maintained between 2.0 and 3.0 (Avery, et al., Clin. Pharmacol. Ther., 2011)."}, "[2]": {"test": "Kidney function test in the Parkinson's Disease patient", "assay_type": "in vivo, human", "conditions": "patient on t-RES; data not shown"}, "[3]": {"system": "patient with stage four idiopathic Parkinson's Disease", "test": "Observation of a stage four Parkinson's Disease patient on t-RES with SINEMET (Tremor Rating Scale, UPDRS)", "assay_type": "in vivo, human", "from_the_text": "as §1\nIn a particular embodiment, the effect of t-RES on a patient with stage four idiopathic Parkinson's Disease was observed. The patient was followed closely for fourteen months while receiving t-RES. t-RES was administered daily and changes in speech, handwriting, gait, leg movement, and dyskinesias were observed. […] Handwriting samples were taken before and after taking t-RES.\nStarting dose of ½ pill 3 times/day SINEMET® 25/100 and 4 pills/day SINEMET® CR 25/100. Doses were given every four hours starting at 7 am.\nEleven months into the study, patient was taking 500 mg t-RES/day, considered the lowest mega-dose, plus the added 100 mg general polyphenols which are mixed into each 125 mg t-RES capsule.\nThis was achieved using a scale devised by the inventor, with three states: tremor, no dyskinesia (T, ND=0); non-tremor, no dyskinesia (NT, ND=1); and dyskinesia, no tremor (D, NT=2). The patient's state was recorded every half hour from 7 am to 10 pm by the author and caregivers on all days practicable.\nDaily numbers from the inventor's 0-2 Tremor Rating Scale (TRS) scale were then tallied and entered into the Unified Parkinson's Disease Rating Scale (UPDRS) for comparison.\nThe doses of t-RES, SINEMET® and other supplements were also noted, with adjustments being made as necessary. The results were then examined for overall changes observed when the t-RES dose was increased every few months as shown in FIG. 2."}, "[4]": {"system": "monoamine oxidase A (MAO-A), MAO-B", "conditions": "rat brain; cited from earlier work"}, "[5]": {"system": "amyloid plaques in mouse brain", "conditions": "dietary supplementation, transgenic model of Alzheimer's Disease; cited from earlier work"}, "[6]": {"conditions": "carbidopa with levodopa; cited from earlier work"}, "patients": {"system": "patients", "conditions": "some patients; cited from earlier work"}, "[7]": {"conditions": "mice; cited from earlier work"}, "[8]": {"system": "patient with Parkinson's Disease", "test": "Tolerability of other drugs and supplements in the Parkinson's Disease patient", "from_the_text": "Patients on the anticoagulant warfarin are expected to have a reading between 2 and 3, with three being the least coagulated."}}, "data": [{"compound": "Oc1ccc(C=Cc2cc(O)cc(O)c2)cc1", "note": "[resveratrol, 3,5,4′-trihydroxy-stilbene]", "values": [{"measurement": "reported adverse events", "setting": "healthy volunteers; 2000 mg twice daily, two-week study, eight healthy adults", "value": "minor diarrhea"}, {"measurement": "adverse effects in healthy volunteers", "setting": "healthy volunteers", "value": "no adverse effects"}]}, {"compound": "Oc1ccc(/C=C/c2cc(O)cc(O)c2)cc1", "note": "[t-RES, 3,5,4′-trihydroxy-trans-stilbene]", "values": [{"measurement": "INR", "setting": "[1]; 250 mg t-Res + 81 mg/day aspirin, Oct. 26, 2010", "value": 1}, {"measurement": "INR score (blood coagulation)", "setting": "[1]; 500 mg followed by 625 mg t-RES, eight and 12 months into the study, normal range 0.8-1.2", "value": 1}, {"measurement": "INR", "setting": "[1]; 500 mg t-Res, Mar. 14, 2011", "value": 1.0}, {"measurement": "INR", "setting": "[1]; 625 mg t-Res, Jul. 6, 2011", "value": 1.0}, {"measurement": "Kidney function", "setting": "[2]", "value": "within the normal range"}, {"measurement": "Total Levodopa per day", "setting": "[3]; 14 months post t-RES (625 mg/day), September 2011, 550 mg before t-RES", "value": "day = 500 mg max"}, {"measurement": "tremors and dyskinesias, share of the day", "setting": "[3]; UPDRS ratings, t-RES plus SINEMET, FIG. 2, rarely over", "value": "≤ 25 % of the day"}, {"measurement": "patient's \"on\" time, share of the day", "setting": "[3]; UPDRS-based, t-RES plus SINEMET, FIG. 2", "value": "75 % of the day"}, {"measurement": "dyskinesias on t-RES dose increase", "setting": "[3]; each increase of t-RES by 125 mg/day, with SINEMET, FIG. 2, FIG. 3", "value": "dyskinesias increased"}, {"measurement": "need for SINEMET per day after starting t-RES", "setting": "[3]; first few days of t-RES, from 1½ tablets per day (150 mg levodopa) to one tablet per day", "value": 100, "unit": "mg levodopa"}, {"measurement": "cognition and speech", "setting": "[3]; following first administration of t-RES (125 mg capsule)", "value": "overnight improvement in cognition and speech"}, {"measurement": "hallucinations", "setting": "[3]; soon after beginning t-RES", "value": "completely eliminated on most days"}, {"measurement": "adverse effects in healthy volunteers", "setting": "healthy volunteers", "value": "no adverse effects"}, {"measurement": "inhibition of MAO-A compared with MAO-B", "setting": "[4]", "value": "slightly more than MAO-B"}, {"measurement": "amyloid plaques in mouse brain", "setting": "[5]", "value": "reduce the number of amyloid plaques"}]}, {"compound": "N[C@@H](CCC(=O)N[C@@H](CS)C(=O)NCC(=O)O)C(=O)O", "note": "[glutathione]", "values": [{"measurement": "symptoms on reducing glutathione", "setting": "[3]; glutathione reduced while on t-RES and SINEMET", "value": "worsening of symptoms"}]}, {"compound": "C[C@@](Cc1ccc(O)c(O)c1)(NN)C(=O)O", "note": "[Carbidopa, carbidopa]", "values": [{"measurement": "reduction of the amount of levodopa required to produce a given response", "setting": "[6]", "value": "about 75%"}]}, {"compound": "C#CCN(C)[C@H](C)Cc1ccccc1", "note": "[deprenyl]", "values": [{"measurement": "extension of lifespan", "setting": "patients", "value": "up to 10 years"}]}, {"compound": "Cc1ccc(NC(=O)c2ccc(CN3CCN(C)CC3)cc2)cc1Nc1nccc(-c2cccnc2)n1", "note": "[imatinib]", "values": [{"measurement": "crossing of the blood-brain barrier", "setting": "[7]", "value": "not able to cross the blood-brain barrier"}]}, {"compound": "C#CCN(C)[C@H](C)Cc1ccccc1", "note": "[selegiline]", "values": [{"measurement": "tolerability in the patient", "setting": "[8]; therapy in conjunction with SINEMET", "value": "neither was tolerated"}]}, {"compound": "C#CCN[C@@H]1CCc2ccccc21", "note": "[rasagiline]", "values": [{"measurement": "tolerability in the patient", "setting": "[8]; human, in vivo", "value": "neither was tolerated"}]}]}
